According to ChEMBL document CHEMBL6109129, “Discovery of Conformationally Constrained Dihydro Benzo-Indole Derivatives as Metallo-β-Lactamase Inhibitors to Tackle Multidrug-Resistant Bacterial Infections” (J Med Chem, 2025):
Values after ≈ are worked out from the molar mass of the structure shown. Active and inactive are the calls of the source. The calls are words filed in the database; no cut-off is given here.

How the values were obtained:
[1] = test system: Enterobacter cloacae; assay: Synergistic antibacterial activity against carbapenem-resistant Enterobacter cloacae BAA-2468 assessed as reduction in microbial growth at 0.5 ug/ml measured after 16 to 18 hrs in presence of imipenem by microbial dilution method; format: functional; details: dose 0.5 µg/ml, time 16-18 hrs
[2] = test system: Klebsiella pneumoniae; assay: Synergistic antibacterial activity against carbapenem-resistant Klebsiella pneumoniae BAA-2473 assessed as reduction in microbial growth at 8 ug/ml measured after 16 to 18 hrs in presence of imipenem by microbial dilution method; format: functional; details: dose 8 µg/ml, time 16-18 hrs
[3] = test system: Klebsiella pneumoniae; assay: Anti-infective activity against carbapenem-resistant Klebsiella pneumoniae ATCC BAA 2146 expressing NDM-1 infected in neutropenic female BALB/c mouse deep thigh infection model assessed as reduction in bacterial count at 20 mg/kg,sc pre-infected with bacteria for 2 hrs followed by compound addition and measured after 26 hrs in presence of imipenem; format: functional
[4] = test system: Escherichia coli; assay: Synergistic antibacterial activity against carbapenem-resistant Escherichia coli BAA-2469 assessed as reduction in microbial growth at 16 ug/ml measured after 16 to 18 hrs in presence of imipenem by microbial dilution method; format: functional; details: dose 16 µg/ml, time 16-18 hrs
[5] = test system: Escherichia coli; assay: Synergistic antibacterial activity against carbapenem-resistant Escherichia coli 567975 assessed as reduction in microbial growth at 4 ug/ml measured after 16 to 18 hrs in presence of imipenem by microbial dilution method; format: functional; details: dose 4 µg/ml, time 16-18 hrs
[6] = test system: Escherichia coli; assay: Synergistic antibacterial activity against carbapenem-resistant Escherichia coli BAA-2471 assessed as reduction in microbial growth at 8 ug/ml measured after 16 to 18 hrs in presence of imipenem by microbial dilution method; format: functional; details: dose 8 µg/ml, time 16-18 hrs
[7] = test system: Klebsiella pneumoniae; assay: Synergistic antibacterial activity against carbapenem-resistant Klebsiella pneumoniae 571278 assessed as reduction in microbial growth at 16 ug/ml measured after 16 to 18 hrs in presence of meropenem by microbial dilution method; format: functional; details: dose 16 µg/ml, time 16-18 hrs
[8] = test system: Klebsiella pneumoniae; assay: Synergistic antibacterial activity against carbapenem-resistant Klebsiella pneumoniae 571278 assessed as reduction in microbial growth at 4 ug/ml measured after 16 to 18 hrs in presence of meropenem by microbial dilution method; format: functional; details: dose 4 µg/ml, time 16-18 hrs
[9] = test system: Klebsiella pneumoniae subsp. pneumoniae; assay: Synergistic antibacterial activity against carbapenem-resistant Klebsiella pneumoniae BAA-2470 assessed as reduction in microbial growth at 16 ug/ml measured after 16 to 18 hrs in presence of imipenem by microbial dilution method; format: functional; details: dose 16 µg/ml, time 16-18 hrs
[10] = test system: Klebsiella pneumoniae subsp. pneumoniae; assay: Synergistic antibacterial activity against carbapenem-resistant Klebsiella pneumoniae BAA-2472 assessed as reduction in microbial growth at 16 ug/ml measured after 16 to 18 hrs in presence of imipenem by microbial dilution method; format: functional; details: dose 16 µg/ml, time 16-18 hrs
[11] = Kinetic solubility of the compound in PBS buffer at pH 7.4 measured after 24 hrs by HPLC analysis; format: physicochemical; details: read-out: Kinetic_solubility
[12] = Metabolic stability in mouse liver microsomes assessed as intrinsic clearance at 1 uM preincubated for 5 mins followed by NADPH addition and measured up to 60 mins by LC-MS/MS analysis; format: ADME, Microsome; details: time < 65 min, read-out: CLH
[13] = test system: Klebsiella pneumoniae subsp. pneumoniae; assay: Synergistic antibacterial activity against carbapenem-resistant Klebsiella pneumoniae subsp. pneumoniae BAA-2470 assessed as reduction in microbial growth at 8 ug/ml measured after 16 to 18 hrs in presence of meropenem by microbial dilution method; format: functional; details: dose 8 µg/ml, time 16-18 hrs
[14] = Apparent permeability the compound in PBS buffer at pH 7.4 measured after 5 hrs by LC-MS/MS analysis; format: ADME; details: not told
[15] = test system: Klebsiella pneumoniae subsp. pneumoniae; assay: Synergistic antibacterial activity against carbapenem-resistant Klebsiella pneumoniae BAA-2470 assessed as reduction in microbial growth at 16 ug/ml measured after 16 to 18 hrs in presence of meropenem by microbial dilution method; format: functional; details: dose 16 µg/ml, time 16-18 hrs
[16] = test system: Escherichia coli; assay: Synergistic antibacterial activity against carbapenem-resistant Escherichia coli BAA-2471 assessed as reduction in microbial growth at 0.5 ug/ml measured after 16 to 18 hrs in presence of imipenem by microbial dilution method; format: functional; details: dose 0.5 µg/ml, time 16-18 hrs
[17] = test system: Escherichia coli; assay: Synergistic antibacterial activity against carbapenem-resistant Escherichia coli 571307 assessed as reduction in microbial growth at 4 ug/ml measured after 16 to 18 hrs in presence of imipenem by microbial dilution method; format: functional; details: dose 4 µg/ml, time 16-18 hrs
[18] = test system: Klebsiella pneumoniae; assay: Synergistic antibacterial activity against carbapenem-resistant Klebsiella pneumoniae 538961 assessed as reduction in microbial growth at 16 ug/ml measured after 16 to 18 hrs in presence of imipenem by microbial dilution method; format: functional; details: dose 16 µg/ml, time 16-18 hrs
[19] = test system: Klebsiella pneumoniae; assay: Synergistic antibacterial activity against Klebsiella pneumoniae ATCC BAA 2146 expressing NDM-1 measured after 16 to 18 hrs in presence of imipenem by microbial dilution method; format: functional, organism-based; details: time 16-18 hrs
[20] = test system: Klebsiella pneumoniae subsp. pneumoniae; assay: Synergistic antibacterial activity against carbapenem-resistant Klebsiella pneumoniae subsp. pneumoniae BAA-2470 assessed as reduction in microbial growth at 0.5 ug/ml measured after 16 to 18 hrs in presence of meropenem by microbial dilution method; format: functional; details: dose 0.5 µg/ml, time 16-18 hrs
[21] = test system: Klebsiella pneumoniae; assay: Synergistic antibacterial activity against carbapenem-resistant Klebsiella pneumoniae BAA-2473 assessed as reduction in microbial growth at 16 ug/ml measured after 16 to 18 hrs in presence of meropenem by microbial dilution method; format: functional; details: dose 16 µg/ml, time 16-18 hrs
[22] = Inhibition of VIM-1 (unknown origin) using FC5 as substrate preincubated for 10 mins followed by substrate addition and measured immediately by fluorescence based analysis; design: species or system Bacteria
[23] = test system: Klebsiella pneumoniae; assay: Synergistic antibacterial activity against carbapenem-resistant Klebsiella pneumoniae 538961 assessed as reduction in microbial growth at 4 ug/ml measured after 16 to 18 hrs in presence of meropenem by microbial dilution method; format: functional; details: dose 4 µg/ml, time 16-18 hrs
[24] = test system: Klebsiella pneumoniae; assay: Synergistic antibacterial activity against carbapenem-resistant Klebsiella pneumoniae BAA-2473 assessed as reduction in microbial growth at 0.5 ug/ml measured after 16 to 18 hrs in presence of meropenem by microbial dilution method; format: functional; details: dose 0.5 µg/ml, time 16-18 hrs
[25] = test system: Klebsiella pneumoniae; assay: Synergistic antibacterial activity against carbapenem-resistant Klebsiella pneumoniae 538961 assessed as reduction in microbial growth at 4 ug/ml measured after 16 to 18 hrs in presence of imipenem by microbial dilution method; format: functional; details: dose 4 µg/ml, time 16-18 hrs
[26] = test system: Klebsiella pneumoniae subsp. pneumoniae; assay: Synergistic antibacterial activity against carbapenem-resistant Klebsiella pneumoniae subsp. pneumoniae BAA-2470 assessed as reduction in microbial growth at 0.5 ug/ml measured after 16 to 18 hrs in presence of imipenem by microbial dilution method; format: functional; details: dose 0.5 µg/ml, time 16-18 hrs
[27] = test system: Escherichia coli; assay: Synergistic antibacterial activity against carbapenem-resistant Escherichia coli BAA-2471 assessed as reduction in microbial growth at 8 ug/ml measured after 16 to 18 hrs in presence of meropenem by microbial dilution method; format: functional; details: dose 8 µg/ml, time 16-18 hrs
[28] = test system: Escherichia coli; assay: Synergistic antibacterial activity against carbapenem-resistant Escherichia coli 571307 assessed as reduction in microbial growth at 16 ug/ml measured after 16 to 18 hrs in presence of meropenem by microbial dilution method; format: functional; details: dose 16 µg/ml, time 16-18 hrs
[29] = test system: Escherichia coli; assay: Synergistic antibacterial activity against carbapenem-resistant Escherichia coli BAA-2469 assessed as reduction in microbial growth at 8 ug/ml measured after 16 to 18 hrs in presence of imipenem by microbial dilution method; format: functional; details: dose 8 µg/ml, time 16-18 hrs
[30] = Metabolic stability in human liver microsomes assessed as intrinsic clearance at 1 uM preincubated for 5 mins followed by NADPH addition and measured up to 60 mins by LC-MS/MS analysis; format: ADME, Microsome; details: time < 65 min, read-out: CLH
[31] = test system: Enterobacter cloacae; assay: Synergistic antibacterial activity against carbapenem-resistant Enterobacter cloacae BAA-2468 assessed as reduction in microbial growth at 8 ug/ml measured after 16 to 18 hrs in presence of imipenem by microbial dilution method; format: functional; details: dose 8 µg/ml, time 16-18 hrs

## COc1ccc(Cl)cc1-c1c(C(=O)O)[nH]c2c1CCc1ccccc1-2
[1]
  MIC: > 64 µg/mL
[2]
  MIC: 16 µg/mL
[3]
  Activity: ~2.2 log10CFU/ml
[4]
  MIC: 4 µg/mL
[5]
  MIC: 8 µg/mL
[6]
  MIC: 16 µg/mL
[7]
  MIC: 16 µg/mL
[8]
  MIC: 32 µg/mL
[9]
  MIC: 2 µg/mL
[10]
  MIC: 8 µg/mL
[11]
  solubility kinetic at 24 h: 19.7 µg/mL (≈ 55.7 µM)
[12]
  microsomal CLint at 1 µM: 12.9 µL/min/mg
[13]
  MIC: 8 µg/mL
[14]
  Papp at 5 h: 14 ×10⁻⁶ cm/s
[15]
  MIC: 4 µg/mL
[16]
  MIC: 32 µg/mL
[17]
  MIC: 4 µg/mL
[18]
  MIC: 2 µg/mL
[19]
  Activity: Active
[20]
  MIC: 32 µg/mL
[21]
  MIC: 8 µg/mL
[22]
  IC50: 21 nM
[23]
  MIC: 16 µg/mL
[24]
  MIC: > 64 µg/mL
[25]
  MIC: 32 µg/mL
[26]
  MIC: 16 µg/mL
[27]
  MIC: 16 µg/mL
[28]
  MIC: 0.5 µg/mL
[29]
  MIC: 8 µg/mL
[30]
  microsomal CLint at 1 µM: 9.8 µL/min/mg
[31]
  MIC: 64 µg/mL
